In patent US7863293B2, “CXCR4 chemokine receptor binding compounds” (Genzyme Corporation, priority 2003, dated 2011):
Read-outs that look alike come from different tables or passages of the source.

Experiments:
[1] = test system: progenitor cells (CFU-GM, BFU-E, CFU-GEMM) per mL of blood; conditions: for Absolute Number Progenitors Per ML Blood, BFU-E / Absolute Number Progenitors Per ML Blood, CFU-GEMM / Absolute Number Progenitors Per ML Blood, CFU-GM: 1 hour post administration; for Absolute Progenitors Per ML Blood, BFU-E / Absolute Progenitors Per ML Blood, CFU-GEMM / Absolute Progenitors Per ML Blood, CFU-GM: 5 mg/Kg single s.c.; for Absolute Progenitors Per ML Blood, BFU-E / Absolute Progenitors Per ML Blood, CFU-GEMM / Absolute Progenitors Per ML Blood, CFU-GM / Fold Change Compared to Time 0, progenitors BFU-E / Fold Change Compared to Time 0, progenitors CFU-GEMM / Fold Change Compared to Time 0, progenitors GM: methylcellulose culture; for Fold Change Compared to Time 0, progenitors BFU-E / Fold Change Compared to Time 0, progenitors CFU-GEMM / Fold Change Compared to Time 0, progenitors GM: mice
Method: Progenitors were stimulated to form colonies in vitro with the combination of 1 U/ml rhu Epo, 50 ng/ml rhu SLF, 5% ^Vol/Vol pokeweed mitogen mouse spleen cell conditioned medium (PWMSCM), and 0.1 mM hemin. Plates were scored 7 days after incubation.

[2] = test system: white blood cells; conditions: human volunteers; 80 μg/kg s.c.
Method: (§1) Five healthy human volunteers having initial white blood cell counts of 4,500-7,500 cells/mm^3 were used in the study. […] Blood samples were obtained via catheter prior to the dose, and at various times up to 24 hours after dosing.
The blood samples were evaluated for total white blood cells, CD34 positive progenitor cells (via FACS analysis) as a percentage of total white blood cells, as well as the absolute numbers per mL and cycling status of granulocyte macrophage (CFU-GM), erythroid (BFU-E), and multipotential (CFU-GEMM) progenitor cells.

[3] = test system: CFU-GM progenitor cells; conditions: average of 5 donors, 80 μg/kg s.c.
Method: as §1
(§2) All progenitor cell results are based on the scoring of 3 culture plates per assay per point.
(§3) For the progenitor cell numbers and cycling status, the numbers of CFU-GM, BFU-E and CFU-GEMM in methylcellulose cultures by stimulation of the cells with 1 Unit (U)/ml recombinant human (rhu) erythropoietin, 100 U/ml rhu granulocyte-macrophage colony stimulating factor (GM-CSF), 100 U/ml rhu interleukin-3 (IL-3) and 50 ng/ml rhu steel factor (SLF=stem cell factor (SCF)). The CFU-GM were also evaluated in agar cultures stimulated with 100 U/ml rhu GM-CSF and 50 ng/ml rhu SLF. For both types of assays, colonies were scored after 14 day incubation in a humidified atmosphere with 5% CO2 and lowered (5%) O2 tension. Cell cycling status of progenitors was measured using a high specific activity tritiated thymidine kill technique as previously described (Broxmeyer, H. E., et al., Exp. Hematol. (1989) 17:455-459).

[4] = test system: CFU-GM, BFU-E and CFU-GEMM progenitor cells; conditions: 80 μg/kg s.c.; for Fold change compared to T = 0, BFU-E, methylcellulose culture, MEAN / Fold change compared to T = 0, CFU-GEMM, methylcellulose culture, MEAN / Fold change compared to T = 0, CFU-GM, methylcellulose culture, MEAN: average of 5 donors
Method: as §1, §2, §3

[5] = test system: white blood cell count; conditions: all patients, i.v. 10-80 μg/kg; 5-10 hours after administration
Method: Eleven human patients having initial white blood cell counts of 4,000-6,500 cells/mm^3 were used in the study. […] Aliquots from this stock solution were added to 50-ml bags of 0.9% saline for intravenous injection in amounts to achieve the desired dosage levels (10 μg/kg-80 μg/kg).
The subjects described in this example already contained an indwelling peripheral intravenous catheter. […] Blood samples were obtained prior to the dose, and at various times up to 24 hours after dose administration.
Three patients were administered dosages of 10 μg/kg (open circles); 3 patients were administered dosages of 20 μg/kg (solid circles); 3 patients were administered 40 μg/kg (open triangles); and 2 patients were administered 80 μg/kg (closed triangles).

[6] = test system: bone marrow stem cells; conditions: rats, coronary ligation; given within hours after cardiac ischemia, with or without rhG-CSF
Method: Adult rats are anesthetized and a thoracotomy is performed. The descending branch of the left coronary artery is ligated and not reperfused. […] Control rats are not treated with the reagents. The animals are monitored at one-week intervals by echocardiography and MRI. […] On the day of sacrifice, the hemodynamic functions are analyzed for left ventricle-end diastolic pressure, left ventricle-developed pressure and the rate of rise and fall of left ventricle pressure. The heart is then arrested in diastole and perfused via the abdominal aorta to flush residual blood from the vascular network of the myocardium. […] Several slices are made through the fixed heart and these are embedded in paraffin and sections. The sections are stained and analyzed by light microscopy to determine the size of the infarct in the treated and control animals. […] The immunohistochemical analysis involves the identification of transcription factors and surface markers expressed in early stages of myocyte development.

[7] = test system: WBC counts; conditions: HIV-infected patients; infusion 2.5 or 5.0 μg/kg/hr
[8] = test system: WBC and circulating CD34+ progenitor/stem cells; conditions: Phase 1 study, single dose of 80 μg/kg; cited from earlier work

For `c1cc(CN2CCCNCCNCCCNCC2)ccc1CN1CCCNCCNCCCNCC1` [AMD3100, 1,1′-[1,4-phenylene-bis(methylene)]-bis-1,4,8,11-tetraazacyclotetradecane], the “Absolute Number Progenitors Per ML Blood, BFU-E” value ([1]; 1 mg/kg single s.c.) was 62 per ML blood, the “Absolute Number Progenitors Per ML Blood, CFU-GEMM” value ([1]; 1 mg/kg single s.c.) was 27.1 per ML blood and the “Absolute Number Progenitors Per ML Blood, CFU-GM” value ([1]; 1 mg/kg single s.c.) was 424 per ML blood. The “Absolute Number Progenitors Per ML Blood, BFU-E” value ([1]; 2.5 mg/kg single s.c.) was 98.9 per ML blood, the “Absolute Number Progenitors Per ML Blood, CFU-GEMM” value ([1]; 2.5 mg/kg single s.c.) was 70.6 per ML blood and the “Absolute Number Progenitors Per ML Blood, CFU-GM” value ([1]; 2.5 mg/kg single s.c.) was 687.6 per ML blood. The “Absolute Progenitors Per ML Blood, BFU-E” value ([1]; 15″) was 134.5 per ML blood, the “Absolute Progenitors Per ML Blood, CFU-GEMM” value ([1]; 15″) was 90.4 per ML blood and the “Absolute Progenitors Per ML Blood, CFU-GM” value ([1]; 15″) was 791.6 per ML blood. For the same compound, the “Absolute Progenitors Per ML Blood, BFU-E” value ([1]; 30″) was 209.3 per ML blood, the “Absolute Progenitors Per ML Blood, CFU-GEMM” value ([1]; 30″) was 113.5 per ML blood and the “Absolute Progenitors Per ML Blood, CFU-GM” value ([1]; 30″) was 1805.5 per ML blood. For the same compound, the “Absolute Progenitors Per ML Blood, BFU-E” value ([1]; 120″) was 102.3 per ML blood, the “Absolute Progenitors Per ML Blood, CFU-GEMM” value ([1]; 120″) was 47.6 per ML blood and the “Absolute Progenitors Per ML Blood, CFU-GM” value ([1]; 120″) was 828.7 per ML blood. The “Absolute Number Progenitors Per ML Blood, BFU-E” value ([1]; 5 mg/kg single s.c.) was 92.8 per ML blood, the “Absolute Number Progenitors Per ML Blood, CFU-GEMM” value ([1]; 5 mg/kg single s.c.) was 69.5 per ML blood and the “Absolute Number Progenitors Per ML Blood, CFU-GM” value ([1]; 5 mg/kg single s.c.) was 608.4 per ML blood. The “Absolute Number Progenitors Per ML Blood, BFU-E” value ([1]; 10 mg/kg single s.c.) was 120.5 per ML blood, the “Absolute Number Progenitors Per ML Blood, CFU-GEMM” value ([1]; 10 mg/kg single s.c.) was 79.8 per ML blood and the “Absolute Number Progenitors Per ML Blood, CFU-GM” value ([1]; 10 mg/kg single s.c.) was 825.6 per ML blood. For the same compound, the “Fold Change Compared to Time 0, progenitors BFU-E” value ([1]; time 2′) was 2.07 fold, the “Fold Change Compared to Time 0, progenitors CFU-GEMM” value ([1]; time 2′) was 1.85 fold and the “Fold Change Compared to Time 0, progenitors GM” value ([1]; time 2′) was 2.86 fold. For the same compound, the “Fold Change Compared to Time 0, progenitors BFU-E” value ([1]; time 15″) was 2.72 fold, the “Fold Change Compared to Time 0, progenitors CFU-GEMM” value ([1]; time 15″) was 3.51 fold and the “Fold Change Compared to Time 0, progenitors GM” value ([1]; time 15″) was 2.73 fold. The “Fold Change Compared to Time 0, progenitors BFU-E” value ([1]; time 30″) was 4.24 fold, the “Fold Change Compared to Time 0, progenitors CFU-GEMM” value ([1]; time 30″) was 4.41 fold and the “Fold Change Compared to Time 0, progenitors GM” value ([1]; time 30″) was 6.23 fold. For the same compound, the “time post-administration at which elevation of white blood cell count maximized” value [2] was 6 h, the “Fold change compared to T = 0, CFU-GM, agar culture, MEAN” value (from here on “Fold change … agar culture, MEAN”) ([3]; T = 1 hour) was 2.81 fold and the “Fold change … agar culture, MEAN” value ([3]; T = 3 hours) was 8.54 fold. The “Fold change … agar culture, MEAN” value ([3]; T = 6 hours) was 17.93 fold, the “Fold change … agar culture, MEAN” value ([3]; T = 9 hours) was 10.25 fold and the “Fold change … agar culture, MEAN” value ([3]; T = 24 hours) was 2.08 fold. The “fold change from T=0, progenitors BFU-E, methylcellulose culture” value ([4]; P2, T = 1 hour) was 1.43 fold, the “Absolute # of Progenitors per ML, BFU-E” value ([4]; P4, T = 9 hours) was 1343 per ML and the “Fold change compared to T = 0, BFU-E, methylcellulose culture, MEAN” value (shortened to “Fold change compared to T = 0, BFU-E”) ([4]; T = 1 hour) was 1.99 fold. The “Fold change compared to T = 0, CFU-GEMM, methylcellulose culture, MEAN” value (“Fold change compared to T = 0, CFU-GEMM” below) ([4]; T = 1 hour) was 2.32 fold, the “Fold change compared to T = 0, CFU-GM, methylcellulose culture, MEAN” value ([4]; T = 1 hour) was 4.77 fold and the “Fold change compared to T = 0, BFU-E” value ([4]; T = 3 hours) was 3.21 fold. For the same compound, the “Fold change compared to T = 0, CFU-GEMM” value ([4]; T = 3 hours) was 4.33 fold, the “Fold change compared to T = 0, CFU-GM, methylcellulose culture, MEAN” value ([4]; T = 3 hours) was 13.66 fold and the “Fold change compared to T = 0, BFU-E” value ([4]; T = 6 hours) was 6.01 fold. For the same compound, the “Fold change compared to T = 0, CFU-GEMM” value ([4]; T = 6 hours) was 10.07 fold, the “Fold change compared to T = 0, CFU-GM, methylcellulose culture, MEAN” value ([4]; T = 6 hours) was 21.71 fold and the “Fold change compared to T = 0, BFU-E” value ([4]; T = 9 hours) was 4.34 fold. For the same compound, the “Fold change compared to T = 0, CFU-GEMM” value ([4]; T = 9 hours) was 5.25 fold, the “Fold change compared to T = 0, CFU-GM, methylcellulose culture, MEAN” value ([4]; T = 9 hours) was 10.47 fold and the “Fold change compared to T = 0, BFU-E” value ([4]; T = 24 hours) was 1.26 fold. The “Fold change compared to T = 0, CFU-GEMM” value ([4]; T = 24 hours) was 1.53 fold, the “Fold change compared to T = 0, CFU-GM, methylcellulose culture, MEAN” value ([4]; T = 24 hours) was 1.56 fold and the “change in white blood cell count” value [5] was “marked increase in white blood cell count”.

For `c1cc(CN2CCCNCCNCCCNCC2)ccc1CN1CCCNCCNCCCNCC1` [AMD-3100], the “effect on cardiac remodeling, scar formation and myocardium” value [6] is given as “block to cardiac remodeling and scar formation”, the “time after discontinuation of the infusion at which WBC counts returned to baseline” value [7] is given as 7 days and the WBC count [8] is given as 17,000 /μl.
